Measurements published in ChEMBL document CHEMBL1201862, “PubChem BioAssay data set” (2004).
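Method: 48-hour compound exposure of cells in 96-well plates, five concentrations, linear interpolation of endpoints. GI50 is the concentration that inhibits growth by half.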 Activity calls are given as the source filed them. Rule as the data show it: active = GI50 up to about 1.1 µM and inactive = higher.

Key:
Test in all cases: NCI anticancer screen, dose series, 48 h
[1] = test system: NCI-H522
[2] = test system: MCF7
[3] = test system: SF-268
[4] = test system: TK-10
[5] = test system: SK-OV-3
[6] = test system: RPMI-8226
[7] = test system: HCT-116
[8] = test system: SK-MEL-5
[9] = test system: NCI/ADR-RES
[10] = test system: UACC-257
[11] = test system: A498
[12] = test system: A549
[13] = test system: LOX IMVI
[14] = test system: T47D
[15] = test system: HOP-92
[16] = test system: DU-145
[17] = test system: HL-60
[18] = test system: Malme-3M
[19] = test system: NCI-H226

Row | Compound | GI50 [1] | GI50 [2] | GI50 [3] | GI50 [4] | GI50 [5] | GI50 [6] | GI50 [7] | GI50 [8] | GI50 [9] | GI50 [10] | GI50 [11] | GI50 [12] | GI50 [13] | GI50 [14] | GI50 [15] | GI50 [16] | GI50 [17] | GI50 [18] | GI50 [19]
1 | O=C(O)CCCSc1ccccc1 | > 100 µM (inactive) | > 100 µM (inactive) | > 100 µM (inactive) | > 100 µM (inactive) | > 100 µM (inactive) | > 100 µM (inactive) | > 100 µM (inactive) | > 100 µM (inactive) | > 100 µM (inactive) | > 100 µM (inactive) | > 100 µM (inactive) | > 100 µM (inactive) | > 100 µM (inactive) | > 100 µM (inactive) | > 100 µM (inactive) | > 100 µM (inactive) | > 100 µM (inactive) | > 100 µM (inactive) | > 100 µM (inactive)
2 | CC(C)CCC1(O)O[C@H]2C[C@H]3[C@@H]4CCC5CC(=O)C=C[C@]5(C)[C@H]4CC[C@]3(C)[C@H]2[C@@H]1C (stereo not given in full) | 1.8 µM (inactive) | 7.73 µM (inactive) | 13.4 µM (inactive) | 11.8 µM (inactive) | 18.8 µM (inactive) | 4.88 µM (inactive) | 6.79 µM (inactive) | 13.7 µM (inactive) | 15.6 µM (inactive) | 15 µM (inactive) | 14.6 µM (inactive) | 14.7 µM (inactive) | 12.7 µM (inactive) | 12 µM (inactive) | 3.58 µM (inactive) | 14.7 µM (inactive) | 4.45 µM (inactive) | 14.9 µM (inactive) | 0.612 µM (active)
3 | NC(=O)Cc1ncn(-c2ccccc2)n1 | > 100 µM (inactive) | > 100 µM (inactive) | > 100 µM (inactive) | > 100 µM (inactive) | > 100 µM (inactive) | > 100 µM (inactive) | > 100 µM (inactive) | > 100 µM (inactive) | > 100 µM (inactive) | > 100 µM (inactive) | > 100 µM (inactive) | > 100 µM (inactive) | > 100 µM (inactive) | > 100 µM (inactive) | > 100 µM (inactive) | > 100 µM (inactive) | > 100 µM (inactive) | > 100 µM (inactive) | > 100 µM (inactive)
4 | CCOC(=O)C(NC(=O)CC)(Nc1ccc(F)c(Cl)c1)C(F)(F)F (stereo not given) | > 100 µM (inactive) | > 100 µM (inactive) | > 100 µM (inactive) | > 100 µM (inactive) | > 100 µM (inactive) | > 63.2 µM (inactive) | > 100 µM (inactive) | > 67.6 µM (inactive) | 78.2 µM (inactive) | > 100 µM (inactive) | > 100 µM (inactive) | > 100 µM (inactive) |  | > 100 µM (inactive) | > 100 µM (inactive) | > 100 µM (inactive) | > 36.2 µM (inactive) | > 100 µM (inactive) | > 100 µM (inactive)
5 | O=c1c(-c2ccccc2)c(SCCN2CCCC2)n(-c2ccccc2)c(=S)n1-c1ccccc1 | > 100 µM (inactive) | > 100 µM (inactive) | > 100 µM (inactive) | > 100 µM (inactive) | > 100 µM (inactive) | > 100 µM (inactive) | > 100 µM (inactive) |  | > 100 µM (inactive) | > 100 µM (inactive) | > 100 µM (inactive) | > 100 µM (inactive) | > 100 µM (inactive) | > 100 µM (inactive) | 71.9 µM (inactive) | > 100 µM (inactive) | > 100 µM (inactive) | > 100 µM (inactive) | 83.2 µM (inactive)
6 | CC(=O)N(C)c1cc(NCc2ccccc2)ccc1OCc1ccccc1 | 17.9 µM (inactive) | 17.9 µM (inactive) | 14.7 µM (inactive) | 17.7 µM (inactive) | 21.7 µM (inactive) |  | 31.8 µM (inactive) | 18.3 µM (inactive) | 20.2 µM (inactive) | 17.3 µM (inactive) | 16.3 µM (inactive) | 18.3 µM (inactive) | 20 µM (inactive) | 36.6 µM (inactive) | 12.7 µM (inactive) | 17.1 µM (inactive) | 26 µM (inactive) | 16.1 µM (inactive) | 18.4 µM (inactive)
7 | CCCCCCCCCCCCCCCCCCNc1nc(=O)n(C2CC(O)C(COP(=O)(O)OCC(COP(=O)(O)OC3C(CO)OC(n4ccc(N)nc4=O)C3O)OCCCCCCCCCCCCCCCCCC)O2)cc1F (stereo not given) | 11.9 µM (inactive) | 8.71 µM (inactive) | 91.6 µM (inactive) | 33.1 µM (inactive) | 99.3 µM (inactive) | 11.8 µM (inactive) | 27.5 µM (inactive) | > 100 µM (inactive) | > 100 µM (inactive) | 97.3 µM (inactive) | 36.7 µM (inactive) | 14.5 µM (inactive) | 16.7 µM (inactive) | 80.9 µM (inactive) | > 100 µM (inactive) | 34.8 µM (inactive) | 8.36 µM (inactive) | 41.4 µM (inactive) | > 100 µM (inactive)
